Results published in patent US20230123334A1, “AMINO LIPID COMPOUND, PREPARATION METHOD THEREFOR, AND APPLICATION THEREOF” (SHENZHEN SHENXIN BIOTECHNOLOGY CO., LTD., priority 2020, published 2023).

System: HEK293 cells
Test: Preliminary screening as mRNA vectors, EGFP mRNA transfection of HEK293 cells
Format: cell-based
Settings: EGFP mRNA 50 ng per well, 96-well plates; percentage of GFP fluorescent cells relative to total number of cells (Hoechst)
Method in brief: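 HEK293 cells in DMEM plus 10% FBS transfected in 96-well format with 50 ng EGFP mRNA per well; Lipofectamine2000 served as positive control. Read-out is the percentage of GFP-fluorescent cells among total cells, counted by Hoechst nuclear stain.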

Compound	Absolute mRNA transfection efficiency in HEK293 cells
CCCCCCCCCCCCCCCNc1nc(NCCN(CC)CC)nc(SCCCCCCCCCCCCCC)n1 [Compound D7S14N15]	0.8%
CCCCCCCCCCCCCCSc1nc(NCCCCCCCC)nc(NCCN2CCOCC2)n1 [Compound D2S14N8]	3.7%
CCCCCCCCCCCCN(CCCCCCCCCCCC)c1nc(NCCN2CCCCC2)nc(SCCCCCCCC)n1 [D4S8^2N12]	1.1%
CCCCCCCCCCSc1nc(NCCCN2CCOCC2)nc(SCCCCCCC)n1 [Compound D8S7S10]	11.4%
CCCCCCCCCCCCCCCSc1nc(NCCCCCCCCCCCC)nc(NCCN2CCOCC2)n1 [Compound D2S15N12]	0.1%
CCCCCCCCCCCSc1nc(NCCN2CCN(C)CC2)nc(SCCCCCCCC)n1 [Compound D5S8S11]	87.0%
CCCCCCCCCCCCCNc1nc(NCCN2CCCCC2)nc(SCCCCCCCCCCCC)n1 [Compound D4S12N13]	1.3%
CCCCCCCCCCCCCNc1nc(NCCN(CC)CC)nc(SCCCCCCC)n1 [Compound D7S7N13]	1.2%
CCCCCCCCCCCCCCCSc1nc(NCCCCCCCCCCCCC)nc(NCCCN(C)C)n1 [Compound D6S15N13]	0.8%
CCCCCCCCCCCCCCCSc1nc(NCCCN(C)C)nc(SCCCCCCC)n1 [Compound D6S7S15]	90.0%
CCCCCCCCCCCCCCCCSc1nc(NCCCCCCC)nc(NCCN2CCN(C)CC2)n1 [Compound D5S16N7]	82.6%
CCCCCCCSc1nc(NCCCN2CCOCC2)nc(SCCCCCCC)n1 [Compound D8S7S7]	5.0%
CCCCCCCCCCCCSc1nc(NCCN2CCOCC2)nc(N(CCCCCCCCCCCC)CCCCCCCCCCCC)n1 [D2S12^2N12]	0.1%
CCCCCCCCCCCCCCSc1nc(NCCCCCCCCCCCC)nc(NCCN(CC)CC)n1 [Compound D7S14N12]	6.6%
CCCCCCCCCCCNc1nc(NCCN(C)C)nc(SCCCCCC)n1 [Compound D1S6N11]	1.0%
CCCCCCCCCNc1nc(NCCN2CCOCC2)nc(SCCCCCCCCC)n1 [Compound D2S9N9]	38.5%
CCCCCCCCCCCCCCCCSc1nc(NCC2CCN(C)CC2)nc(SCCCCCCC)n1 [Compound D10S7S16]	73.7%
CCCCCCCSc1nc(NCCCCCC)nc(NCCN(CC)CC)n1 [Compound D7S7N6]	2.3%
CCCCCCCCCCCCCNc1nc(NCCN2CCCC2)nc(SCCCCCCCCCCC)n1 [Compound D3S11N13]	25.9%
CCCCCCCCCCCCCCCCNc1nc(NCCN2CCCC2)nc(SCCCCCCC)n1 [Compound D3S7N16]	25.0%
CCCCCCCCNc1nc(NCCN(C)C)nc(SCCCCCC)n1 [Compound D1S6N8]	3.1%
CCCCCCCCCCCCCCCCCCNc1nc(NCCN2CCN(C)CC2)nc(SCCCCCCCCC)n1 [Compound D5S9N18]	28.6%
CCCCCCCCCSc1nc(NCCCN2CCOCC2)nc(SCCCCCCC)n1 [Compound D8S7S9]	18.6%
CCCCCCCCCCCCSc1nc(NCCCCCCCCCCC)nc(NCC2CCN(C)CC2)n1 [Compound D10S12N11]	26.6%
CCCCCCCCCCCCCCCCSc1nc(NCCCCCCCC)nc(NCCCN(C)C)n1 [Compound D6S16N8]	91.5%

Compound	Absolute mRNA transfection efficiency in HEK293 cells
CCCCCCCCCCCCNc1nc(NCCN(CC)CC)nc(SCCCCCCCC)n1 [Compound D7S8N12]	9.5%
CCCCCCCCCCCCCCCCCCSc1nc(NCCCCCCCC)nc(NCCN2CCN(C)CC2)n1 [Compound D5S18N8]	33.4%
CCCCCCCCCSc1nc(NCCCCCC)nc(NCCN(CC)CC)n1 [Compound D7S9N6]	0.6%
CCCCCCCCCCCCCCCCCCNc1nc(NCCN(C)C)nc(SCCCCCCCCCCCCCCC)n1 [Compound D1S15N18]	3.8%
CCCCCCCCCCCCN(CCCCCCCCCCCC)c1nc(NCCCN2CCOCC2)nc(SCCCCCCCCCC)n1 [D8S10^2N12]	0.0%
CCCCCCCCCCCCCCSc1nc(NCCCCCCCCCCCCC)nc(NCCN(CC)CC)n1 [Compound D7S14N13]	11.7%
CCCCCCCCCCCCCCCCSc1nc(NCC2CCN(C)CC2)nc(SCCCCCC)n1 [Compound D10S6S16]	85.5%
CCCCCCCCCCCCCCCCSc1nc(NCCCN2CCOCC2)nc(SCCCCCCC)n1 [Compound D8S7S16]	22.7%
CCCCCCCCCCCSc1nc(NCCCCCCC)nc(NCCN2CCOCC2)n1 [Compound D2S11N7]	8.5%
CCCCCCCCCCCCCCCCCCNc1nc(NCCN2CCCCC2)nc(SCCCCCCCCCCCC)n1 [Compound D4S12N18]	4.6%
CCCCCCCCSc1nc(NCCCCCC)nc(NCC2CCN(C)CC2)n1 [Compound D10S8N6]	0.4%
CCCCCCCCCCCCCCCCSc1nc(NCCCCCCC)nc(NCCN(CC)CC)n1 [Compound D7S16N7]	7.8%
CCCCCCCSc1nc(NCCCN2CCN(C)CC2)nc(SCCCCCC)n1 [Compound D9S6S7]	6.3%
CCCCCCCCCCCCCCCCNc1nc(NCCN2CCOCC2)nc(SCCCCCCCCCCCCCCC)n1 [Compound D2S15N16]	1.4%
CCCCCCCCCCCCCCSc1nc(NCCCCCC)nc(NCC2CCN(C)CC2)n1 [Compound D10S14N6]	41.9%
CCCCCCCCCCCCCCCNc1nc(NCCN2CCN(C)CC2)nc(SCCCCCCCCC)n1 [Compound D5S9N15]	32.9%
CCCCCCCCCSc1nc(NCCCCCCCC)nc(NCCN2CCOCC2)n1 [Compound D2S9N8]	22.6%
CCCCCCCCCCCCCCCCNc1nc(NCCN(C)C)nc(SCCCCCCCCCCCCCCCC)n1 [Compound D1S16N16]	0.9%
CCCCCCCCCNc1nc(NCCN(CC)CC)nc(SCCCCCCCC)n1 [Compound D7S8N9]	9.5%
CCCCCCCCCCCCCCCCCCSc1nc(NCCCCCCCCCCCC)nc(NCCN2CCOCC2)n1 [Compound D2S18N12]	2.3%
CCCCCCCCCCCCCCCCCCNc1nc(NCC2CCN(C)CC2)nc(SCCCCCCCCC)n1 [Compound D10S9N18]	22.4%
CCCCCCCCCCCCSc1nc(NCCCCCCCCC)nc(NCCN2CCCC2)n1 [Compound D3S12N9]	39.9%
CCCCCCCCCCCCCCCCSc1nc(NCCCCCCCC)nc(NCCN(CC)CC)n1 [Compound D7S16N8]	6.5%
CCCCCCCCCCCCCCCNc1nc(NCCCN2CCN(C)CC2)nc(SCCCCCCCC)n1 [Compound D9S8N15]	37.8%
